Results on 24 compounds are retold here after patent publication US8575158B2, “1-phenyl-substituted heterocyclyl derivatives and their use as prostaglandin D2 receptor modulators” (Actelion Pharmaceuticals Ltd., priority 2010, dated 2013).

The target in the assay is T1, hCRTH2 receptor (Homo sapiens, UniProt Q9Y5Y4).
T1 construct: expressed in transfected cells; host or cells: HEK293
T1 sequence (Q9Y5Y4 1-395): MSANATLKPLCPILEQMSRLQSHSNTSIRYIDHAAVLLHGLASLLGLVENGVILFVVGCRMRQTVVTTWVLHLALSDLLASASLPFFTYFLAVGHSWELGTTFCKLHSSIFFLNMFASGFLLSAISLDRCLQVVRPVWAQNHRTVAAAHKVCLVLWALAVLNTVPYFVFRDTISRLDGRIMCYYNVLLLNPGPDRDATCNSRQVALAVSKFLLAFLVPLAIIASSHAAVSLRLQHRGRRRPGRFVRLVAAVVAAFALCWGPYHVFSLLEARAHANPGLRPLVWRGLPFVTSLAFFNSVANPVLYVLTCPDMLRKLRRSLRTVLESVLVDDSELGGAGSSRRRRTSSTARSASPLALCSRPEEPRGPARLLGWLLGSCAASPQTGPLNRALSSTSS
As to the kind of experiment: Radioligand displacement assay (3H-PGD2) on hCRTH2 receptor membranes. As to conditions: antagonistic activity; 3H-PGD2 displacement on HEK293-hCRTH2 membrane fragments. Format: binding.
As for `O=C(O)COc1ccc(F)cc1C1c2ccccc2CCN1C(=O)Cc1ccccc1` (racemic) [Example 124, (±)-[4-Fluoro-2-(2-phenylacetyl-1,2,3,4-tetrahydro-isoquinolin-1-yl)-phenoxy]-acetic acid], the IC50 (commonly the point on the concentration scale where inhibition reaches its midpoint) was 417 nM.
`O=C(O)COc1ccc(F)cc1C1c2ccccc2CCN1C(=O)COc1ccccc1` (racemic) [Example 125, (±)-{4-Fluoro-2-[2-(2-phenoxy-acetyl)-1,2,3,4-tetrahydro-isoquinolin-1-yl]-phenoxy}-acetic acid] registered an IC50 of 175 nM.
In turn, `O=C(O)COc1ccc(F)cc1C1c2ccccc2CCN1C(=O)COCc1ccccc1` (racemic) [Example 126, (±)-{2-[2-(2-Benzyloxy-acetyl)-1,2,3,4-tetrahydro-isoquinolin-1-yl]-4-fluoro-phenoxy}-acetic acid] displayed an IC50 of 20 nM.
In turn, `O=C(O)COc1ccc(F)cc1C1c2ccccc2CCN1C(=O)CCCc1ccccc1` (racemic) [Example 127, (±)-{4-Fluoro-2-[2-(4-phenyl-butyryl)-1,2,3,4-tetrahydro-isoquinolin-1-yl]-phenoxy}-acetic acid] had an IC50 of 29 nM.
Compound `COc1ccccc1CCC(=O)N1CCc2ccccc2C1c1cc(F)ccc1OCC(=O)O` (racemic) [Example 128, (±)-(4-Fluoro-2-{2-[3-(2-methoxy-phenyl)-propionyl]-1,2,3,4-tetrahydro-isoquinolin-1-yl}-phenoxy)-acetic acid] showed an IC50 of 69 nM.
As for `COc1cccc(CCC(=O)N2CCc3ccccc3C2c2cc(F)ccc2OCC(=O)O)c1` (racemic) [Example 129, (±)-(4-Fluoro-2-{2-[3-(3-methoxy-phenyl)-propionyl]-1,2,3,4-tetrahydro-isoquinolin-1-yl}-phenoxy)-acetic acid], the figure is 280 nM; as for `COc1ccc(CCC(=O)N2CCc3ccccc3C2c2cc(F)ccc2OCC(=O)O)cc1` (racemic) [Example 130, (±)-(4-Fluoro-2-{2-[3-(4-methoxy-phenyl)-propionyl]-1,2,3,4-tetrahydro-isoquinolin-1-yl}-phenoxy)-acetic acid], 270 nM; as for `O=C(O)COc1ccc(F)cc1C1c2ccccc2CCN1C(=O)CCc1ccccc1Cl` (racemic) [Example 131, (±)-(2-{2-[3-(2-Chloro-phenyl)-propionyl]-1,2,3,4-tetrahydro-isoquinolin-1-yl}-4-fluoro-phenoxy)-acetic acid], 48 nM.
`O=C(O)COc1ccc(F)cc1C1c2ccccc2CCN1C(=O)CCc1cccc(Cl)c1` (racemic) [Example 132, (±)-(2-{2-[3-(3-Chloro-phenyl)-propionyl]-1,2,3,4-tetrahydro-isoquinolin-1-yl}-4-fluoro-phenoxy)-acetic acid] had an IC50 of 86 nM.
As for `O=C(O)COc1ccc(F)cc1C1c2ccccc2CCN1C(=O)CCc1ccc(Cl)cc1` (racemic) [Example 133, (±)-(2-{2-[3-(4-Chloro-phenyl)-propionyl]-1,2,3,4-tetrahydro-isoquinolin-1-yl}-4-fluoro-phenoxy)-acetic acid], the figure is 126 nM.
In turn, `Cc1ccccc1CCC(=O)N1CCc2ccccc2C1c1cc(F)ccc1OCC(=O)O` (racemic) [Example 134, (±)-{4-Fluoro-2-[2-(3-o-tolyl-propionyl)-1,2,3,4-tetrahydro-isoquinolin-1-yl]-phenoxy}-acetic acid] returned an IC50 of 31 nM.
`O=C(O)COc1ccc(F)cc1C1c2ccccc2CCN1C(=O)Cc1ccc2ccccc2c1` (racemic) [Example 135, (±)-{4-Fluoro-2-[2-(2-naphthalen-2-yl-acetyl)-1,2,3,4-tetrahydro-isoquinolin-1-yl]-phenoxy}-acetic acid] gave an IC50 of 42.2 nM.
The compound `Cc1ccccc1OCC(=O)N1CCc2ccccc2C1c1cc(F)ccc1OCC(=O)O` (racemic) [Example 136, (±)-{4-Fluoro-2-[2-(2-o-tolyloxy-acetyl)-1,2,3,4-tetrahydro-isoquinolin-1-yl]-phenoxy}-acetic acid] showed an IC50 of 119 nM.
With `Cn1cc(CC(=O)N2CCc3ccccc3C2c2cc(F)ccc2OCC(=O)O)c2ccccc21` (racemic) [Example 137, (±)-(4-Fluoro-2-{2-[2-(1-methyl-1H-indol-3-yl)-acetyl]-1,2,3,4-tetrahydro-isoquinolin-1-yl}-phenoxy)-acetic acid], the IC50 is 314 nM.
The compound `O=C(O)COc1ccc(F)cc1C1c2ccccc2CCN1C(=O)COc1ccccc1Cl` (racemic) [Example 138, (±)-(2-{2-[2-(2-Chloro-phenoxy)-acetyl]-1,2,3,4-tetrahydro-isoquinolin-1-yl}-4-fluoro-phenoxy)-acetic acid] returned an IC50 of 101 nM.
As for `O=C(O)COc1ccc(F)cc1C1c2ccccc2CCN1C(=O)CCc1ccccc1F` (racemic) [Example 139, (±)-(4-Fluoro-2-{2-[3-(2-fluoro-phenyl)-propionyl]-1,2,3,4-tetrahydro-isoquinolin-1-yl}-phenoxy)-acetic acid], the figure is 233 nM; as for `O=C(O)COc1ccc(F)cc1C1c2ccccc2CCN1C(=O)CC1Cc2ccccc2C1` (racemic) [Example 140, (±)-{4-Fluoro-2-[2-(2-indan-2-yl-acetyl)-1,2,3,4-tetrahydro-isoquinolin-1-yl]-phenoxy}-acetic acid], 36.4 nM.
Regarding `O=C(O)COc1ccc(F)cc1C1c2ccccc2CCN1C(=O)/C=C/c1ccccc1F` (racemic) [Example 141, (±)-(4-Fluoro-2-{2-[(E)-3-(2-fluoro-phenyl)-acryloyl]-1,2,3,4-tetrahydro-isoquinolin-1-yl}-phenoxy)-acetic acid], the IC50 was 835 nM.
`Cc1ccccc1/C=C/C(=O)N1CCc2ccccc2C1c1cc(F)ccc1OCC(=O)O` (racemic) [Example 142, (±)-{4-Fluoro-2-[2-((E)-3-o-tolyl-acryloyl)-1,2,3,4-tetrahydro-isoquinolin-1-yl]-phenoxy}-acetic acid] gave an IC50 of 349 nM.
For `O=C(O)COc1ccc(F)cc1C1c2ccccc2CCN1C(=O)CCCCc1ccccc1` (racemic) [Example 143, (±)-{4-Fluoro-2-[2-(5-phenyl-pentanoyl)-1,2,3,4-tetrahydro-isoquinolin-1-yl]-phenoxy}-acetic acid] the value was 395 nM; for `O=C(O)COc1ccc(F)cc1C1c2ccccc2CCN1C(=O)CCOc1ccccc1` (racemic) [Example 144, (±)-{4-Fluoro-2-[2-(3-phenoxy-propionyl)-1,2,3,4-tetrahydro-isoquinolin-1-yl]-phenoxy}-acetic acid], 73.9 nM; for `CS(=O)(=O)c1ccc(CCC(=O)N2CCc3ccccc3C2c2cc(F)ccc2OCC(=O)O)cc1` (racemic) [Example 145, (±)-(4-Fluoro-2-{2-[3-(4-methanesulfonyl-phenyl)-propionyl]-1,2,3,4-tetrahydro-isoquinolin-1-yl}-phenoxy)-acetic acid], 983 nM.
Regarding `O=C(O)COc1ccc(F)cc1C1c2ccccc2CCN1C(=O)CCN1CCc2ccccc21` (racemic) [Example 146, (±)-{2-[2-(3-2,3-Dihydro-indol-1-yl-propionyl)-1,2,3,4-tetrahydro-isoquinolin-1-yl]-4-fluoro-phenoxy}-acetic acid], the IC50 was 61.3 nM.
`Cc1ccccc1OCCC(=O)N1CCc2ccccc2C1c1cc(F)ccc1OCC(=O)O` (racemic) [Example 147, (±)-{4-Fluoro-2-[2-(3-o-tolyloxy-propionyl)-1,2,3,4-tetrahydro-isoquinolin-1-yl]-phenoxy}-acetic acid]: the IC50 turned out to be 57.6 nM.
